According to patent US20120277306A1, “COMPOSITION CONTAINING METAL-ACIDIC AMINO ACID CHELATE ACCELERATING ABSORPTION OF METAL” (priority 2006, published 2012):

Experiments:
[1] = Plasma zinc concentration over time after administration of zinc samples; assay type: in vivo, Sprague-Dawley rat; conditions: zinc 40 mg/kg; for plasma zinc concentration over time: blood at 0.5, 1, 2, 4, 8 hours
Protocol: These experimental animals were randomly assigned into a zinc sulfate-administered group, a zinc arginine-administered group and a zinc-aspartate chelate-administered group. After animals were fasted for 12 hours, each zinc sample was administered to rats, such that a zinc concentration in the sample is 40 mg/kg. After administration of the samples was complete, blood was collected at a time point of 0.5, 1, 2, 4, and 8 hours, respectively, and treated with heparin. Then, blood plasma was stored in a refrigerator and used for analysis of zinc concentrations. On the other hand, in order to examine distribution of zinc in the tissue, each zinc sample was administered to rats. After 8 hours, animals were sacrificed to remove organs. Zinc concentrations in the blood plasma and tissues were determined by fluorometry using Zinquin.

[2] = Distribution of zinc in tissues (prostate, testis) after administration of zinc samples; assay type: in vivo, Sprague-Dawley rat
[3] = system: ZnT-2; experiment: Expression of zinc transporter protein mRNA in prostatic tissue (RT-PCR); assay type: in vivo; conditions: compared to before oral administration of zinc
Protocol: In order to examine effects of zinc-aspartate complex on the expression of ZnT-2 and ZnT-4, known as zinc transporter proteins, experiments were carried out according to the following procedure.
Using Trizol Reagent (Invitrogen, USA), total RNA was extracted from 0.1 g of prostatic tissue. Using M-MLV reverse transcriptase (Invitrogen, USA), cDNA was synthesized from 5 μg of the extracted total RNA. 20 pmol of a primer was added to 3 μl of cDNA to make a volume of 20 μl and PCR was carried out as follows: initial denaturation at 95° C. for 5 min, followed by 26 cycles of denaturation at 94° C. for 1 min, annealing at an annealing temperature corresponding to conditions of each primer for 1 min and extension at 72° C. for 1 min, and final extension at 72° C. for 10 min.
PCR products were subjected to electrophoresis on 1.5% agarose gel containing EtBr, followed by confirmation of products under UV irradiation.
Effects of the zinc-aspartate complex, zinc sulfate and zinc arginine on the expression of mRNAs for ZnT-2, ZnT-4 and G3PDH were investigated.

[4] = system: prostate cancer cell line (R3327 AT-3.1); experiment: Prostate cancer model, growth of cancer cells injected into the prostate; assay type: in vivo, COP rat
Protocol: 10-week-old COP male rats (Japan SLC, Shizuoka, Japan) were housed and allowed to acclimate to the new environment for seven days prior to the experiment, in a breeding room maintained at a temperature of 22±2° C., humidity of 55±5%, and a 12-h light/dark (L/D) cycle (light from 8:00 a.m. to 8:00 p.m.).
5×10^4 cells/head of the prostate cancer cell line (R3327 AT-3.1) were injected into the prostate of animals and growth of cancer cells was measured.

[5] = system: patients with chronic prostatitis; experiment: Clinical trial of zinc-aspartate chelate in chronic prostatitis patients (NIH-CPSI); assay type: in vivo, human
Protocol: 34 patients with a medical history of more than 5 years of chronic prostatitis were administered with a zinc-aspartate chelate at a dose of 50 mg/day for 8 weeks. Clinical trials were conducted at the Department of Urology, College of Medicine, Korea University (Seoul, Korea). Prostatitis classification and symptom relief were analyzed according to National Institutes of Health Chronic Prostatitis Symptom Index (NIH-CPSI, proposed by NIH in 1995). As clinical effects by a conventional therapy, the data of the clinical study of Sungkyunkwan University School of Medicine (Seoul, Korea), published in the Korean Journal of Urology (2001), were cited.
Tables 3 and 4 below respectively show the results for chronic prostatitis patients with administration of an antibiotic and an anti-inflammatory drug as conventional therapeutic agents and with administration of the zinc-aspartate chelate, in conjunction with the results for the control group.

[6] = system: prostatitis-induced rats (Escherichia coli ATCC 25922); experiment: White rat model of chronic bacterial prostatitis, H&E histology of prostate
[7] = 4 and 8 hours after administration
[8] = 8 hours after administration, zinc 40 mg/kg, p<0.001
[9] = 15 mg/kg/day oral, 30 days, H&E stained prostate sections

zinc-aspartate chelate
plasma zinc concentration compared to zinc sulfate-administered group [1]: significant increase | time point of maximum blood zinc level after administration [1]: 2 h | plasma zinc concentration over time [1]: time-dependent increase | intraprostatic zinc level compared to zinc sulfate- and zinc arginine-administered groups [2, 7]: significantly high zinc concentration | intratesticular zinc level compared to zinc sulfate- and zinc arginine-administered groups [2, 7]: significantly high zinc concentration | zinc concentration in testis [2, 8]: significantly high zinc concentration | zinc concentration in the prostatic tissue [2, 8]: significantly high zinc concentration | expression level of ZnT-2 mRNA [3]: highest increase | weight of tumor mass compared to the control group ([4]; 10 mg/kg oral daily): significant weight reduction of tumor mass | weight of tumor mass compared to the Taxel group ([4]; 10 mg/kg oral daily vs DoceTaxel 10 mg/kg once a week I.P): much lower weight of tumor mass | side effects ([5]; 50 mg/day for 8 weeks, 34 patients): no reports showing noticeable side effects | NIH-CPSI Dysuria, after treatment ([5]; 8 weeks, oral administration, 50 mg/day, P 0.01): 4.02 | NIH-CPSI Pain, after treatment ([5]; 8 weeks, oral administration, 50 mg/day, P 0.036): 6.82 | NIH-CPSI Quality of life, after treatment ([5]; 8 weeks, oral administration, 50 mg/day, P 0.04): 2.61 | NIH-CPSI Dysuria, before treatment ([5]; baseline, n = 34): 5.53 | NIH-CPSI Pain, before treatment ([5]; baseline, n = 34): 8.412 | NIH-CPSI Quality of life, before treatment ([5]; baseline, n = 34): 3.53 | therapeutic effects compared with conventional drug therapy and physical therapy ([5]; chronic prostatitis patients, Tables 3 and 4): almost the similar level of therapeutic effects | fibrosis in the interstitium [6, 9]: substantially no progress of fibrosis | infiltration of inflammatory cells into and around glandular tissues [6, 9]: no infiltration of inflammatory cells | prostate tissue morphology ([6]; 15 mg/kg/day oral, 30 days, compared with normal group): normal tissue morphology comparable to that of the normal group | anti-inflammatory effects ([6]; E. coli inoculated prostate, oral administration, stained prostate tissues): excellent anti-inflammatory effects

N=C(N)NCCC[C@H](N)C(=O)O.[Zn] [zinc arginine]
plasma zinc concentration compared to zinc sulfate-administered group [1]: significant increase | plasma zinc concentration over time [1]: time-dependent increase

O=S(=O)([O-])[O-].[Zn+2] [zinc sulfate]
time point of maximum blood zinc level after administration [1]: 2 h | plasma zinc concentration over time [1]: time-dependent increase
